Test results: US11970513B2, “Advanced glycation end product analogues” (Phytoquest Limited, priority 2012, dated 2024)
Where two headings read alike, the source gives them in different places.

Legend:
[1] = system: α-D-glucosidase; assay: Glycosidase assay, α-D-glucosidase (Bacillus sterothermophilus); format: biochemical; conditions: 0.2 mM, negative value = stabilisation/promotion
Experimental: (§1) All enzymes and para-nitrophenyl substrates were purchased from Sigma, with the exception of beta-mannosidase which came from Megazyme. Enzymes were assayed at 27° C. in 0.1M citric acid/0.2M disodium hydrogen phosphate buffers at the optimum pH for the enzyme. The incubation mixture consisted of 10 μl enzyme solution, 10 μl of 1 mg/ml aqueous solution of sample and 50 μl of the appropriate 5 mM para-nitrophenyl substrate made up in buffer at the optimum pH for the enzyme. The reactions were stopped by addition of 70 μl 0.4M glycine (pH 10.4) during the exponential phase of the reaction, which had been determined at the beginning using uninhibited assays in which water replaced inhibitor. Final absorbances were read at 405 nm using a Versamax microplate reader (Molecular Devices). Assays were carried out in triplicate, and the values given are means of the three replicates per assay. The method was carried out as described in Watson et al. (1997) Phytochemistry 46 (2): 255-259.

[2] = system: β-D-mannosidase; assay: Glycosidase assay, β-D-mannosidase (Cellullomonas fimi); format: biochemical; conditions: 0.2 mM, negative value = stabilisation/promotion
Experimental: as §1

[3] = target: T1, α-L-fucosidase (Bos taurus, UniProt Q2KIM0); assay: Glycosidase assay, α-L-fucosidase (bovine kidney); format: biochemical; conditions: 0.2 mM, negative value = stabilisation/promotion, read-out: percentage inhibition
T1 construct: purchased Sigma
T1 sequence (Q2KIM0 23-468): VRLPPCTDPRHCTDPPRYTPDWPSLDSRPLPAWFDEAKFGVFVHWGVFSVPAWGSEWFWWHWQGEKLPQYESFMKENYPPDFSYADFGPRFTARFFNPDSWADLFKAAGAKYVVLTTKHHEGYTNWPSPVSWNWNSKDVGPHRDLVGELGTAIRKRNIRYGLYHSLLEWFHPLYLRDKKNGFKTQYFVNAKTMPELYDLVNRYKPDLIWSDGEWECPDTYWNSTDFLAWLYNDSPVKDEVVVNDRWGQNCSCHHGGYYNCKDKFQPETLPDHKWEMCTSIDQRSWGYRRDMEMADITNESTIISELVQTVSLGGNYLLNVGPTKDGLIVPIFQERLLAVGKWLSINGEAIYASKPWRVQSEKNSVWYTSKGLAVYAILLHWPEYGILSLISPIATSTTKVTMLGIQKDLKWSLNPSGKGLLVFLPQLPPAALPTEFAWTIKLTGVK
Experimental: as §1

[4] = target: T2, glycogen phosphorylase b (Oryctolagus cuniculus, UniProt P00489); assay: Glycogen phosphorylase (GPb) activity; format: biochemical
T2 construct: purchased Sigma-Aldrich Fine Chemicals (St. Louis, Mo, USA)
T2 sequence (P00489 1-843): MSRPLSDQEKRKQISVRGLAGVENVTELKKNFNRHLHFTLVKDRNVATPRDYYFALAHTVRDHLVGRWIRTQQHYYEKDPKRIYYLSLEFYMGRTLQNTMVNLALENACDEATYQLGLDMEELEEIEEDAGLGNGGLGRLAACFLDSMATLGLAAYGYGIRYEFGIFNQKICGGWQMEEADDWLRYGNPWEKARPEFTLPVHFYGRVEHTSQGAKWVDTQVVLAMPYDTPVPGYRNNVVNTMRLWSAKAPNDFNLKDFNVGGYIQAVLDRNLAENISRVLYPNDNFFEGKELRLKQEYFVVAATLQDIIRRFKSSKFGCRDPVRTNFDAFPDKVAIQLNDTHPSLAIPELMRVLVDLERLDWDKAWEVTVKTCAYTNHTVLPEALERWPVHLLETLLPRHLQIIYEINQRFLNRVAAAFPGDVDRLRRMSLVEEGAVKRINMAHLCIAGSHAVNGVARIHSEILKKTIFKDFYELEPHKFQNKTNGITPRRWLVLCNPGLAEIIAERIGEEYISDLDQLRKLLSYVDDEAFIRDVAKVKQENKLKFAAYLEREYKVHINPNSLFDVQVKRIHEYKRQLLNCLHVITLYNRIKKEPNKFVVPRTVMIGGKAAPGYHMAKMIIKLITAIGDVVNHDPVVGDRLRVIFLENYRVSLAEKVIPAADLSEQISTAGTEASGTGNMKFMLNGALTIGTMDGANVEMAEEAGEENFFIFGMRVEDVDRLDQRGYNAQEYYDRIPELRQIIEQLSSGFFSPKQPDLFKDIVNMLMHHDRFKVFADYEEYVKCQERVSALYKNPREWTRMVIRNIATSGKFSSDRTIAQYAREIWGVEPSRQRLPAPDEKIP
Experimental: N2-beta-D-Fructopyranos-1-yl-Arginine and 1-Deoxy-1-(N-γ-aminobutyric acid)fructose were tested on glycogen phosphorylase and found to give weak inhibition (14.2 and 5.5% respectively at 400 μM.
Materials. Phosphoglucomutase, glucose-6-phosphate dehydrogenase, glucose-1,6-bisphosphate, glycogen phosphorylase b, α-D-glucose 1-phosphate dipotassium salt hydrate were purchased from Sigma-Aldrich Fine Chemicals (St. Louis, Mo, USA). Glycogen and caffeine were purchased from Nacalai Tesque (Kyoto, Japan). Other chemicals were from Wako Pure Chemical industries (Osaka, Japan).
Measurement of GPb activity. GPb activity was measured in the direction of glycogenolysis using 2 mg/mL glycogen as the substrate in 45 mM phosphate buffer at pH 6.8, containing 0.1 mM EDTA. […] The rate of enzyme-catalysed reaction in the medium can be followed as the increase in absorbance at 340 nm and 25° C. due to the formation of NADPH. GPb activity was also measured in the direction of glycogen synthesis using 25 mM glucose-1-P as substrate in a 250 mM Tris-malate buffer (pH 6.8), containing 5 mg/mL glycogen, 1 mM AMP, 15 mM cysteine, and glycogen phosphorylase b. […] Pi was measured by the Fiske-Subbarow method. The rate of enzyme-catalysed reaction in the medium was followed as the Increase in absorbance at 660 nm.

[5] = system: β-D-galactosidase; assay: Glycosidase assay, β-D-galactosidase (bovine liver); format: biochemical; conditions: 0.2 mM, negative value = stabilisation/promotion
Experimental: as §1

[6] = target: T3, α-D-giucosidase (Saccharomyces cerevisiae, UniProt P53341); assay: Glycosidase assay, α-D-glucosidase (Saccharomyces cerevisiae); format: biochemical; conditions: 0.2 mM, negative value = stabilisation/promotion, read-out: percentage inhibition
T3 construct: purchased Sigma
Experimental: as §1

[7] = target: T4, α-D-galactosidase (Coffea arabica, UniProt Q42656); assay: Glycosidase assay, α-D-galactosidase (green coffee bean); format: biochemical; conditions: 0.2 mM, Green coffee bean (Coffea sp.), negative value = stabilisation/promotion, read-out: percentage inhibition
T4 construct: purchased Sigma
Experimental: as §1

[8] = system: Naringinase; assay: Glycosidase assay, naringinase (Penicillium decumbens); format: biochemical; conditions: 0.2 mM, negative value = stabilisation/promotion
Experimental: as §1

[9] = target: T5, β-glucuronidase (Escherichia coli, UniProt P05804); assay: Glycosidase assay, β-glucuronidase (E. coli); format: biochemical; conditions: 0.2 mM, negative value = stabilisation/promotion, read-out: percentage inhibition
T5 construct: purchased Sigma
Experimental: as §1

[10] = system: N-acetyl-β-D-glucosaminidase; assay: Glycosidase assay, N-acetyl-β-D-glucosaminidase (bovine kidney); format: biochemical; conditions: for percentage inhibition: 0.2 mM, N-acetyl-β-D-glucosaminidase, Bovine kidney, negative value = stabilisation/promotion; for IC50: bovine hexosaminidase, read-out: IC50 against the bovine hexosaminidase
Experimental: as §1

[11] = target: T6, β-glucuronidase (Bos taurus, UniProt A3KMY8); assay: Glycosidase assay, β-glucuronidase (bovine liver); format: biochemical; conditions: for inhibition at 200 µM: read-out: percentage inhibition
T6 sequence (A3KMY8 1-652): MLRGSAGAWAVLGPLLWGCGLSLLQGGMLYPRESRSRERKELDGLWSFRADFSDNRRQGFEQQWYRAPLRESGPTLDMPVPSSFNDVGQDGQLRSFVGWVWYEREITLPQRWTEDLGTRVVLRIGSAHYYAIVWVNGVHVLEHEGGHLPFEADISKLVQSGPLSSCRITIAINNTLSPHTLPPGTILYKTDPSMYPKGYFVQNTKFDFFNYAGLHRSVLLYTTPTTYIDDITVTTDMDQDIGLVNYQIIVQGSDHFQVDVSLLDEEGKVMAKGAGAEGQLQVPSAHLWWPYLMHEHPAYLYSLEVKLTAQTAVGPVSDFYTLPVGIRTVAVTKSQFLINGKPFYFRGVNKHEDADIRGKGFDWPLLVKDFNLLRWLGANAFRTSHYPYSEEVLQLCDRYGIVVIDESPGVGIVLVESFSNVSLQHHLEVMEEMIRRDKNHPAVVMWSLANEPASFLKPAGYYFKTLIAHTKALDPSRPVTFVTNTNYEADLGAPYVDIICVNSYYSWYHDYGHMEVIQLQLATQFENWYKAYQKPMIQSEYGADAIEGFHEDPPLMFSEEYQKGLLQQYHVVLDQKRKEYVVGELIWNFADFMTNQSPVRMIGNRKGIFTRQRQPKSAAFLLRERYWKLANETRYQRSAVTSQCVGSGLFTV
Experimental: as §1

[12] = target: T7, N-acetyl-β-D-hexosaminidase (Aspergillus oryzae, UniProt Q8J2T0); assay: Glycosidase assay, N-acetyl-β-D-hexosaminidase (Aspergillus oryzae); format: biochemical; conditions: 0.2 mM, negative value = stabilisation/promotion, read-out: percentage inhibition
T7 construct: purchased Sigma
Experimental: as §1

[13] = target: T8, Amyloglucosidase (Aspergillus niger, UniProt P69328); assay: Glycosidase assay, amyloglucosidase (Aspergillus niger); format: biochemical; conditions: 0.2 mM, negative value = stabilisation/promotion, read-out: percentage inhibition
T8 construct: purchased Sigma
Experimental: as §1

[14] = target: T9, α-D-glucosidase (Oryza sativa subsp. japonica, UniProt Q653V7); assay: Glycosidase assay, α-D-glucosidase (rice); format: biochemical; conditions: 0.2 mM, Rice (Oryza saliva), negative value = stabilisation/promotion, read-out: percentage inhibition
T9 construct: purchased Sigma
Experimental: as §1

[15] = target: T10, α-D-mannosidase (Canavalia ensiformis, UniProt C0HJB3); assay: Glycosidase assay, α-D-mannosidase (jack bean); format: biochemical, Jack bean (Canavalia ensiformis); conditions: read-out: percentage inhibition
T10 construct: purchased Sigma
T10 sequence (C0HJB3 1-981): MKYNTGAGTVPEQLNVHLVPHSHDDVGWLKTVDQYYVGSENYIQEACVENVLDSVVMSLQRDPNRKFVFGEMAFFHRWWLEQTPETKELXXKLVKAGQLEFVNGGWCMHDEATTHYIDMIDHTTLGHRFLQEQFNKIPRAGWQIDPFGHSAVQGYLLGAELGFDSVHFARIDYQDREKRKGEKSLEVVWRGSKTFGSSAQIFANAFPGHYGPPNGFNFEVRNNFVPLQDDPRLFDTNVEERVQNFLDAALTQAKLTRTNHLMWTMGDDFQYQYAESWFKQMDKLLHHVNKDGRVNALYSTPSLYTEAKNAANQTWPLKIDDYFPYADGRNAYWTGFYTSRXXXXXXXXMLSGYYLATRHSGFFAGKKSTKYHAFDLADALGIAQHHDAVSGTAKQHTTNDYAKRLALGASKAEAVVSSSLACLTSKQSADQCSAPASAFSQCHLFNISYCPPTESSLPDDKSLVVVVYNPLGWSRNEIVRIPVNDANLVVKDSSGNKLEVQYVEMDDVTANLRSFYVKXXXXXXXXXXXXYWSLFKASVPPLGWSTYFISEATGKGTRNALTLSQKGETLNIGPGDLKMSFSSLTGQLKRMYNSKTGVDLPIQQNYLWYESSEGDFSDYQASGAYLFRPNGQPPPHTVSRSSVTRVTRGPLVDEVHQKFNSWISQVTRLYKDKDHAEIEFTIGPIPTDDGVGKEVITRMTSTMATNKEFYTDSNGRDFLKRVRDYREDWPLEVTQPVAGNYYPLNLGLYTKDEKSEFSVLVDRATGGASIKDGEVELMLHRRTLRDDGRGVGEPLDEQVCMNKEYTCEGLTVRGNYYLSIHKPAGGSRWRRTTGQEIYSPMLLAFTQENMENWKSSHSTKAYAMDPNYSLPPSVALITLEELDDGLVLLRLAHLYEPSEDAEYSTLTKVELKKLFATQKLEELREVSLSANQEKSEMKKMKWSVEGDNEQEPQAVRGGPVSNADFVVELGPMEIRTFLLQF
Experimental: as §1

[16] = system: β-D-glucosidase; assay: Glycosidase assay, β-D-glucosidase (almond); format: biochemical; conditions: 0.2 mM, Almond (Prunus sp.), negative value = stabilisation/promotion
Experimental: as §1

[17] = system: N-acetyl-β-D-glucosaminidase; assay: Glycosidase assay, N-acetyl-β-D-glucosaminidase (jack bean); format: biochemical; conditions: 0.2 mM, negative value = stabilisation/promotion
Experimental: as §1

T9 sequence (Q653V7 34-885): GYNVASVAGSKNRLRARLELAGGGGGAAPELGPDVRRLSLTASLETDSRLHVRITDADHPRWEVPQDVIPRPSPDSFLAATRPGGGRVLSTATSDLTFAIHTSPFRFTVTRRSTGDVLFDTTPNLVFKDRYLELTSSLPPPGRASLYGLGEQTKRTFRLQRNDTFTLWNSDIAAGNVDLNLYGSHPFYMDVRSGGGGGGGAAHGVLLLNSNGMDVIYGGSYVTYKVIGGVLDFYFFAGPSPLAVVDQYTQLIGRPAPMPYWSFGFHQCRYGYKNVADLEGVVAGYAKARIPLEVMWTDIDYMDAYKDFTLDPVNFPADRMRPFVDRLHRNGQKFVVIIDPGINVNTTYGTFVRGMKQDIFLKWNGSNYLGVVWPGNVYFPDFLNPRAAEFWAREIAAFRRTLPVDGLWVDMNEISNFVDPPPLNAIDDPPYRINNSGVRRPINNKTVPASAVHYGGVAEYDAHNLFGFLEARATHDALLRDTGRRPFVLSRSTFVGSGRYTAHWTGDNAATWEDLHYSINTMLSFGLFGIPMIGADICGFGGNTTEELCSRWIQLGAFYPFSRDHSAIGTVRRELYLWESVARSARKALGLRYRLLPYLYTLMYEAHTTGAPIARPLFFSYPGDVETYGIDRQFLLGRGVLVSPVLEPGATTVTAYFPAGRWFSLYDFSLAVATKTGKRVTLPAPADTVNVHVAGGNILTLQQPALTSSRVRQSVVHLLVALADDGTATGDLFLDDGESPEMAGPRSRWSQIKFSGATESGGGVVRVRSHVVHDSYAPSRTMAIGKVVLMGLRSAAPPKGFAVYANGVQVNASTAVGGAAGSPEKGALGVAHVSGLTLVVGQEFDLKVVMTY
T4 sequence (Q42656 16-378): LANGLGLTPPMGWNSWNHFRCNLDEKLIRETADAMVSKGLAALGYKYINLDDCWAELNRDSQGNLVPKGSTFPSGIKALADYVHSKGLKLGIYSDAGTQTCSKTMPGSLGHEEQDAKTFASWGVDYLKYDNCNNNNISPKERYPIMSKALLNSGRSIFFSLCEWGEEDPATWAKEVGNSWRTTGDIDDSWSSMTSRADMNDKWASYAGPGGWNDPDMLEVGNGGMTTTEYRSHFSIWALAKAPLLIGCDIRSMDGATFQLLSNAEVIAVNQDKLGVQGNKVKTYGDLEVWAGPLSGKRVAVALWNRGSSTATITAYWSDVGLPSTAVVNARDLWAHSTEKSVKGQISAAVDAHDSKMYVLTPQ
T3 sequence (P53341 whole entry): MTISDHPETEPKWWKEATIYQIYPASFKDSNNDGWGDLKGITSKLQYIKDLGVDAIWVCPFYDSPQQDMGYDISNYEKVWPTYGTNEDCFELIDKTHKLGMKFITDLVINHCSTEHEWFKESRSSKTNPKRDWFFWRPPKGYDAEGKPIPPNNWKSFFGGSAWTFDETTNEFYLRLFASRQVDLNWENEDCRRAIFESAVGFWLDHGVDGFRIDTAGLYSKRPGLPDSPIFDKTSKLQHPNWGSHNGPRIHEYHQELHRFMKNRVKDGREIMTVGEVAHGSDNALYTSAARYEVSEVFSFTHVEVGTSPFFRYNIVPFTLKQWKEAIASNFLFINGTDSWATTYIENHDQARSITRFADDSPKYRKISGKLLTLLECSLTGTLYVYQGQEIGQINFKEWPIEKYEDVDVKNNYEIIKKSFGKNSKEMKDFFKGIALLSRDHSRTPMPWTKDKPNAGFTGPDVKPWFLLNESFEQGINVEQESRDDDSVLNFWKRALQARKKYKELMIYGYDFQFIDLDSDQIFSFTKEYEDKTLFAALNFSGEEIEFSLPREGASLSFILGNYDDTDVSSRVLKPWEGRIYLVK
T8 sequence (P69328 25-640): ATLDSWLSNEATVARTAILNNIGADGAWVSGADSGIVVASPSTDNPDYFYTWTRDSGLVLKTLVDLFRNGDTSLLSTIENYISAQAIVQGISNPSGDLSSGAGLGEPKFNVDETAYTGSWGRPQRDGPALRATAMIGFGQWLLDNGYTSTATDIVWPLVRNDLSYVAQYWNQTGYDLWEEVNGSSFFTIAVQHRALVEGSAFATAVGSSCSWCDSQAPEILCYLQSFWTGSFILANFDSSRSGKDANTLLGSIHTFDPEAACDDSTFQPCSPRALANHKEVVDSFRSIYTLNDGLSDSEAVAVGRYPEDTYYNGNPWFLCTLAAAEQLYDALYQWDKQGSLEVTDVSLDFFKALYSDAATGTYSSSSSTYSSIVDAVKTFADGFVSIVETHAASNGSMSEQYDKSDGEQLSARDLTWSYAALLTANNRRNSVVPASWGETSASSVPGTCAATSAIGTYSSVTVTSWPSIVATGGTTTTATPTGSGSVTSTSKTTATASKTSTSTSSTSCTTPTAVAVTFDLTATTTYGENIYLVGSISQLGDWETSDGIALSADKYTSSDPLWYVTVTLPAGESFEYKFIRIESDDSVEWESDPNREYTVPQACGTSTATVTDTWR
T5 sequence (P05804 whole entry): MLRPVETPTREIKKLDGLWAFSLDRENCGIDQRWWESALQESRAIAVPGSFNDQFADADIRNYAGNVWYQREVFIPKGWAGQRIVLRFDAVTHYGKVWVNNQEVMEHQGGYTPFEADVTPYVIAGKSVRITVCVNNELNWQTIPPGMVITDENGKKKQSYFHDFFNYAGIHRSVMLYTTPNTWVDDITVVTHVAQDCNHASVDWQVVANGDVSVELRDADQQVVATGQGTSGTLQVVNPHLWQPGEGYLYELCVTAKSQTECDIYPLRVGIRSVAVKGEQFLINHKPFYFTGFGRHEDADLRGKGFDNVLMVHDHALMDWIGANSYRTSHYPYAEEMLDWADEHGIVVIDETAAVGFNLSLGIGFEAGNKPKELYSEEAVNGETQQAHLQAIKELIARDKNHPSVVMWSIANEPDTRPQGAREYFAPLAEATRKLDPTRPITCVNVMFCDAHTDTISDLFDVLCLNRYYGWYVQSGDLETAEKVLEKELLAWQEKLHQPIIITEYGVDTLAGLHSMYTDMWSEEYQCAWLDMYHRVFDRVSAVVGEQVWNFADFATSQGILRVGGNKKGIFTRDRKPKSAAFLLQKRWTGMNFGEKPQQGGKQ
T7 sequence (Q8J2T0 97-600): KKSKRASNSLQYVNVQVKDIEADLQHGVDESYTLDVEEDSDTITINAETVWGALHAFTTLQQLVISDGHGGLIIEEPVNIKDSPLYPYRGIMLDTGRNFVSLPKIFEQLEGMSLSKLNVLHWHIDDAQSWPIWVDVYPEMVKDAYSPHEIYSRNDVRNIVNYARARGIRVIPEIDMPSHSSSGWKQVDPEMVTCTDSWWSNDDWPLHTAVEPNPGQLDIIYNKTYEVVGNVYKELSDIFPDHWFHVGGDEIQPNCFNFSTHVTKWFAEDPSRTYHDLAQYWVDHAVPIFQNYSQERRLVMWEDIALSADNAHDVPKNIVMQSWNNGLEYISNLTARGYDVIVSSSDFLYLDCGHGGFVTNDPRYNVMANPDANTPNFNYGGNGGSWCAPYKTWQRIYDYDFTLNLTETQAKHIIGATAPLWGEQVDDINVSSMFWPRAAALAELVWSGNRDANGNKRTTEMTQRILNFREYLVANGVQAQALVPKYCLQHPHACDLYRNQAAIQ

Compound | percentage inhibition [1] [%] | percentage inhibition [2] [%] | inhibition at 200 µM [3] [%] | inhibition at 400 µM [4] [%] | percentage inhibition [5] [%] | inhibition at 200 µM [6] [%] | inhibition at 200 µM [7] [%] | percentage inhibition [8] [%] | inhibition at 200 µM [9] [%] | percentage inhibition [10] [%] | IC50 [10] [µM] | inhibition at 200 µM [11] [%] | inhibition at 200 µM [12] [%] | inhibition at 200 µM [13] [%] | inhibition at 200 µM [14] [%] | inhibition at 200 µM [15] [%] | percentage inhibition [16] [%] | percentage inhibition [17] [%] | IC50 ([11]; bovine β-glucuronidase, read-out: IC50 against the bovine β-glucuronidase) [µM] | inhibition at 200 µM ([15]; 0.2 mM, α-D-mannosidase, Jack bean (Canavalia ensiformis), negative value = stabilisation/promotion) [%]
O=C(O)CCCNCC1(O)OCC(O)C(O)C1O (stereo not shown) [1-Deoxy-1-(N-γ-aminobutyric acid)fructose] | 0.7 | −10.3 | -1.3 | 5.5 | 1.3 | -4.2 | -7.1 | 0.2 | -0.8 | 55.3 | 200 | -1.2 | -19.2 | -2.9 | -4.2 | -6.2 | −0.9 | −6.3 |  | 
N=C(N)NCCCC(NCC1(O)OCC(O)C(O)C1O)C(=O)O [N2-β-D-Fructopyranos-1-yl-Arginine, 5-carbamimidamido-2-{[(2,3,4,5-tetrahydroxytetrahydro-2H-pyran-2-yl)methyl]amino}pentanoic acid] | −1.7 | −8.1 | -9.3 | 14.2 | −3.9 | -1.4 | 3.4 | 4.1 | -9 | 88.5 | 7.7 | 85.2 | -15.3 | 15 | -6 |  | 7.6 | −0.8 | 101 | 35.2
